Experimental data as given in ChEMBL document CHEMBL4390703, “Anti-HAV evaluation and molecular docking of newly synthesized 3-benzyl(phenethyl)benzo[g]quinazolines” (Bioorg Med Chem Lett, 2019).
pEC50, pIC50: −log10 of the molar value.

Experiments:
[1] = Inhibition of HAV protease 3C expressed in Escherichia coli BL21(DE3) pLysS using Dabcyl-GLRTQSND (edans) G as substrate preincubated for 3 mins before enzyme addition by fluorescence method; set-up: species or system Hepatovirus A
[2] = Antiviral activity against HAV HM175 infected in African green monkey Vero cells assessed as inhibition of virus-induced cytopathic effect measured after 48 hrs by crystal violet staining based assay; assay type: functional, Human hepatitis A virus, Hu/Australia/HM175/1976; conditions: for pEC50: Hepatovirus A, Hu/Australia/HM175/1976, Vero, 48 h, read-out: EC50; for EC50: vero
[3] = Selectivity index, ratio of CC50 for African green monkey Vero cells to EC50 for HAV HM175 infected in African green monkey Vero cells; assay type: toxicity; conditions: for selectivity ratio: Vero cells, read-out: Ratio CC50/EC50; for Ratio CC50/EC50: vero
[4] = Cytotoxicity against African green monkey Vero cells measured after 48 hrs by crystal violet staining based colorimetric method; assay type: cell-based; conditions: chlorocebus sabaeus; for MNTC at 48 h: read-out: MNCC
[5] = tested on: Hepatovirus A; assay: Inhibition of HAV protease 3C expressed in Escherichia coli BL21(DE3) pLysS at 1 uM using Dabcyl-GLRTQSND (edans) G as substrate preincubated for 3 mins before enzyme addition by fluorescence method relative to control
[6] = Antiviral activity against HAV HM175 infected in African green monkey Vero cells assessed as inhibition of virus-induced cytopathic effect at MNCC measured after 48 hrs by crystal violet staining based assay relative to control; assay type: functional, Human hepatitis A virus, Hu/Australia/HM175/1976
[7] = tested on: Hepatovirus A; assay: Inhibition of HAV protease 3C expressed in Escherichia coli BL21(DE3) pLysS at 10 uM using Dabcyl-GLRTQSND (edans) G as substrate preincubated for 3 mins before enzyme addition by fluorescence method relative to control
[8] = tested on: Hepatovirus A; assay: Inhibition of HAV protease 3C expressed in Escherichia coli BL21(DE3) pLysS at 100 uM using Dabcyl-GLRTQSND (edans) G as substrate preincubated for 3 mins before enzyme addition by fluorescence method relative to control
[9] = tested on: Hepatovirus A; assay: Inhibition of HAV protease 3C expressed in Escherichia coli BL21(DE3) pLysS at 0.1 uM using Dabcyl-GLRTQSND (edans) G as substrate preincubated for 3 mins before enzyme addition by fluorescence method relative to control

Structure (SMILES)	pIC50 [1]	pEC50 [2]	inhibition [5]	inhibition [7]	inhibition [8]	inhibition [9]	EC50 [2]	selectivity ratio [3]	CC50 at 48 h [4]	inhibition (INH) [6]	MNTC at 48 h [4]	Ratio CC50/EC50 [3]
O=c1c2cc3ccccc3cc2nc(SCc2ccc([N+](=O)[O-])cc2)n1Cc1ccccc1	–	–	–	–	–	–	Not Active	–	48.2 µg/mL	0%	31.2 µg/mL	Not Active
O=c1c2cc3ccccc3cc2nc(SCc2ccccc2)n1Cc1ccccc1	–	3.71	–	–	–	–	–	2.14	419 µM	42.31%	62.5 µg/mL	–
C=CCSc1nc2cc3ccccc3cc2c(=O)n1CCc1ccccc1	–	–	–	–	–	–	Not Active	–	164 µg/mL	3.54%	62.5 µg/mL	Not Active
N#Cc1cccc(CSc2nc3cc4ccccc4cc3c(=O)n2CCc2ccccc2)c1	–	3.89	–	–	–	–	–	1.25	163 µM	23.49%	31.2 µg/mL	–
O=c1c2cc3ccccc3cc2[nH]c(=S)n1CCc1ccccc1	–	3.89	–	–	–	–	–	3.06	391 µM	46.36%	31.2 µg/mL	–
N#Cc1ccc(CSc2nc3cc4ccccc4cc3c(=O)n2CCc2ccccc2)cc1	–	–	–	–	–	–	Not Active	–	86.3 µg/mL	2.88%	15.6 µg/mL	Not Active
N#Cc1cccc(CSc2nc3cc4ccccc4cc3c(=O)n2Cc2ccccc2)c1	–	3.79	–	–	–	–	–	2.32	380 µM	41.94%	62.5 µg/mL	–
N#Cc1ccc(CSc2nc3cc4ccccc4cc3c(=O)n2Cc2ccccc2)cc1	–	3.82	–	–	–	–	–	1.35	206 µM	23.82%	31.2 µg/mL	–

Further lines, with some results ahead:

pIC50 [1]	pEC50 [2]	inhibition [5]	inhibition [7]	inhibition [8]	inhibition [9]	EC50 [2]	Structure (SMILES)	selectivity ratio [3]	CC50 at 48 h [4]	inhibition (INH) [6]	MNTC at 48 h [4]	Ratio CC50/EC50 [3]
4.43	4.43	–	–	–	–	–	NC12CC3CC(CC(C3)C1)C2 [AMANTADINE]	54.1	2020 µM	–	–	–
4.56 to 4.65	4.56	16.3%	31.1%	73.1%	2.65%	–	NNc1nc2cc3ccccc3cc2c(=O)n1Cc1ccccc1	10.5	291 µM	63.58%	15.6 µg/mL	–
4.44 to 5.48	4.44	37.5%	64.8%	86%	9.85%	–	O=c1c2cc3ccccc3cc2[nH]c(=S)n1Cc1ccccc1	4.91	180 µM	67.18%	15.6 µg/mL	–
–	4.24	–	–	–	–	–	O=c1c2cc3ccccc3cc2nc(SCc2ccc(Cl)cc2)n1CCc1ccccc1	1.75	101 µM	41.26%	15.6 µg/mL	–
–	4.16	–	–	–	–	–	Cc1ccccc1CSc1nc2cc3ccccc3cc2c(=O)n1CCc1ccccc1	1.24	86.8 µM	38.09%	15.6 µg/mL	–
–	4.04	–	–	–	–	–	Cc1cccc(CSc2nc3cc4ccccc4cc3c(=O)n2Cc2ccccc2)c1	5.61	506 µM	58.76%	62.5 µg/mL	–
–	4.21	–	–	–	–	–	COc1cccc(CSc2nc3cc4ccccc4cc3c(=O)n2CCc2ccccc2)c1	2.36	145 µM	54.32%	31.2 µg/mL	–
4.74 to 5.23	4.74	33%	51.5%	78.8%	13.3%	–	NNc1nc2cc3ccccc3cc2c(=O)n1CCc1ccccc1	31.6	569 µM	79.81%	31.2 µg/mL	–
–	4.17	–	–	–	–	–	COc1cccc(CSc2nc3cc4ccccc4cc3c(=O)n2Cc2ccccc2)c1	1.22	82.7 µM	24.48%	7.8 µg/mL	–
–	4.36	–	–	–	–	–	N#Cc1ccccc1CSc1nc2cc3ccccc3cc2c(=O)n1Cc1ccccc1	1.23	53.5 µM	39.58%	7.8 µg/mL	–
